From US20060258726A1, “1,5-Disubstituted imidazolidin-2-one derivatives for use as ep4 receptor agonists in the treatment of eye and bone diseases” (priority 2002, published 2006)

Legend:
intracellular cAMP = experiment: Effect of PGE2 on intracellular cAMP in osteoblastic cell lines; format: cell-based, rat
EP4 mRNA [1] = experiment: EP4 mRNA levels in bone-derived cell lines (Northern blot); format: cell-based, rat
Method: (§1) RP-1 periosteal cells are spontaneously immortalized from primary cultures of periosteal cells from tibae of 4-week old Sprague-Dawley rats and are cultured in DMEM (BRL, Gaithersburg, Md.) with 10% fetal bovine serum (JRH Biosciences, Lenexa, Kans.).
RCT-1 and RCT-3 are clonal cell lines immortalized by SV-40 large T antigen from cells released from fetal rat calvair by a cmbination collagenase/hyaluronidase digestion. RCT-1 cells, derived from cells released during the first 10 minutes of digestion (fraction I), are cultured in RPMI 1640 medium (BRL) with 10% fetal bovine serum and 0.4 mg/ml G418 (BRL). These cells differentiate and express osteoblastic features upon retinoic acid treatment. RCT-3 cells, immortalized from osteoblast-enriched fraction III cells, are cultured in F-12 medium (BRL) with 5% Fetal bovine serum and 0.4 mg/ml G418. TRAB-11 cells are also immortalized by SV40 large T antigen from adult rat tibia and are cultured in RPML 1640 medium with 10% FBS and 0.4 mg/ml G418. ROS 17/2.8 rat osteosarcoma cells are cultured in F-12 containing 5% FBS. Osteoblast-enriched (fraction E) primary fetal rat calvaria cells are obtained by collagenase/hyaluronidase digestion of calvariae of 19 day-old rat fetuses. See Rodan et al., Growth stimulation of rat calvaria osteoblastic cells by acidic FGF, Endocrinology, 121, 1919-1923 (1987), which is incorporated by reference herein in its entirety. Cells are released during 30-50 minutes digestion (fraction E) and are cultured in F-12 medium containing 5% […].
(§2) Total RNA is extracted from the tibial metaphysis or diaphysis and calvaria using a guanidinium isothiocyanate-phenol-chloroform method after pulverizing frozen bone samples by a tissue homogenizer. See P. Chomczynski et al., Single-step method of RNA isolation by acid guanlidium thiocyanate-phenol-chloroform extraction., Analyt Biochem, 162, 156-159 (1987), which is incorporated by reference herein in its entirety. RNA samples ([…]) are separated on 0.9% agarose/formaldehyde gels and transferred onto nylon membranes (Boehringer Mannheim, Germany). […]

EP2 mRNA [2] = experiment: EP2 mRNA in RP-1 periosteal cells (Northern blot); format: cell-based, rat; details: RP-1 cells
Method: as §1
(§3) Total RNA is extracted from the tibial metaphysis or diaphysis and calvaria using a guanidinium isothiocyanate-phenol-chloroform method after pulverizing frozen bone samples by a tissue homogenizer. See P. Chomczynski et al., Single-step method of RNA isolation by acid guanlidium thiocyanate-phenol-chloroform extraction., Analyt Biochem, 162, 156-159 (1987), which is incorporated by reference herein in its entirety. RNA samples ([…]) are separated on 0.9% agarose/formaldehyde gels and transferred onto nylon membranes (Boehringer Mannheim, Germany). Membranes are prehybridized in Hybrisol I (Oncor, Gaithersburg, Md.) and 0.5 mg/ml sonicated salmon sperm DNA (Boehringer) at 42° C. for 3 hours and are hybridized at 42° C. with rat EP2 and mouse EP4 cDNA probes labeled with [^32P]-dCTP (Amersham, Buckinghamshire, UK) by random priming using the rediprime kit (Amersham). After hybridization, membranes are washed 4 times in 2×SSC+0.1% SDS at room temperature for a total of 1 hour and once with 0.2×SSC+0.1% SDS at 55° C. for 1 hour and then exposed to Kodak XAR 2 film at −70° C. using intensifying screens. […]

EP4 mRNA [3] = experiment: EP4 mRNA levels in bone tissue after systemic injection (Northern blot); format: in vivo, rat; details: tibial diaphysis, 3-6 mg/Kg systemic
From the text: For mRNA localization experiments, 5-week old Sprague-Dawley rats (Charles River) are euthanized by CO2, their tibiae and calvariae are excised, cleaned of soft tissues and frozen immediately in liquid nitrogen. […] Animals are euthanized at several time points post-injection and their tibiae and calvariae, as well as samples from lung and kidney tissues are frozen in liquid nitrogen.
as §3, with “(Amersham).” for “(Amersham). After hybridization, membranes are washed 4 times in 2×SSC+0.1% SDS at room temperature for a total of 1 hour and once with 0.2×SSC+0.1% SDS at 55° C. for 1 hour and then exposed to Kodak XAR 2 film at −70° C. using intensifying screens.”

EP2 mRNA [4] = experiment: EP2 mRNA in bone tissue after systemic injection (Northern blot); format: in vivo, rat
Method: (§4) For mRNA localization experiments, 5-week old Sprague-Dawley rats (Charles River) are euthanized by CO2, their tibiae and calvariae are excised, cleaned of soft tissues and frozen immediately in liquid nitrogen. For EP4 regulation experiments, 6-week old rats are given a single injection of either vehicle (7% ethanol in sterile water) or an anabolic dose of PGE2 (Cayman Chemical, Ann Arbor, Mich., 3-6 mg/kg in the same vehicle) intraperitoneally. Animals are euthanized at several time points post-injection and their tibiae and calvariae, as well as samples from lung and kidney tissues are frozen in liquid nitrogen.
as §2

EP4 mRNA [5] = experiment: Localization of EP4 mRNA expression in bone tissue by in situ hybridization; format: in vivo; details: single anabolic dose, rat tibia
Method: as §4
Frozen tibiae are sectioned coronally at […] thickness and sections are mounted on charged slides (Probe On Plus, Fisher Scientific, Springfield, N.J.) and are kept at −70° C. until hybridization. cRNA probes are labeled with ^35S-UTPgS (ICN, Costa Mesa, Calif.) using a Riboprobe II kit (Promega Madison, Wis.). Hybridization is performed overnight at 50° C. […]
In situ hybridization is used in order to localize cells expressing EP4 in bone. In control experiment (vehicle-injected) rats, low expression of EP4 is detected in bone marrow cells. […]

## CCCCC[C@H](O)/C=C/[C@H]1[C@H](O)CC(=O)[C@@H]1C/C=C\CCCC(=O)O [PGE2]
Intracellular cAMP; RCT-3 cells
  effect on intracellular cAMP: markedly induced
Intracellular cAMP; ROS 17/2.8 rat osteosarcoma cells
  effect on intracellular cAMP: no effect
Intracellular cAMP; TRAB-11 cells
  effect on intracellular cAMP: markedly induced
EP4 mRNA [1]; RCT-3 cells
  effect on EP4 mRNA levels: no effect
EP4 mRNA [1]; RP-1 periosteal cells, 10^−6 M
  effect on EP4 mRNA levels: rapidly increases
  time of peak EP4 mRNA level after treatment: 2 h
EP2 mRNA [2]
  EP2 mRNA expression before or after treatment: not expressed
EP4 mRNA [3]
  time of peak EP4 mRNA level after injection: 2 h
EP4 mRNA [3]; five-week-old male rats
  effect on EP4 mRNA levels: rapidly increased
EP2 mRNA [4]
  induction of EP2 mRNA: does not induce
EP4 mRNA [5]
  expression of EP4 in bone marrow cells: increased
